How the values were obtained:
[1] = tested on: E. coli, B. subtilis, A. tumefaciens, L. lactis, M. conglomeratus, C. crescentus and S. aureus; test: Short pulse labeling of evolutionarily distinct bacteria; assay type: cell-based; details: pulsed for 2%-8% of generation time, immediately fixed
[2] = tested on: Agrobacterium tumefaciens; test: Cell wall / PG labeling of live A. tumefaciens, fluorescence microscopy; assay type: cell-based; details: for incorporation into the cell wall: control experiments, fluorescent D-Ala vs fluorescent L-Ala

For NC(CNC(=O)c1cc2ccc(O)cc2oc1=O)C(=O)O (stereo not shown) [HADA], the “visibility of sites of active cell wall synthesis” value [1] was “sites of active synthesis were clearly visible”, the “incorporation into the cell wall” value [2] was “incorporated into the cell wall” and the “PG labeling, long labeling pulses” value ([2]; live A. tumefaciens, long pulse) was “uniformly label PG”.

For N[C@@H](CNC(=O)c1cc2ccc(O)cc2oc1=O)C(=O)O [HALA], the “incorporation into the cell wall” value [2] was “only D-HCC was incorporated”.
